Laboratory results: PubChem BioAssay (NCI)
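At the GI50, growth is halved. The concentration for full growth arrest is given as TGI.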

Columns and labels:
Assay in all cases: NCI anticancer screen, dose series, 384-well format
[1] = system: HCT-15 colon
[2] = system: MDA-MB-231 breast
[3] = system: EKVX NSCLC
[4] = system: NCI-H226 lung
[5] = system: M14 melanoma
[6] = system: CAKI-1 renal
[7] = system: TK-10 renal
[8] = system: NCI/ADR-RES ovarian
[9] = system: IGROV1 ovarian
[10] = system: SNB-19 CNS
[11] = system: BT-549 breast
[12] = system: HOP-62 NSCLC
[13] = system: MALME-3M melanoma
[14] = system: HT29 colon
[15] = system: SW-620 colon
[16] = system: SK-MEL-2 melanoma
[17] = system: DU-145 prostate
[18] = system: SN12C renal
[19] = system: MDA-MB-435 melanoma
[20] = system: OVCAR-8 ovarian
[21] = system: HS 578T breast
[22] = system: HOP-92 NSCLC
[23] = system: K-562 leukemia
[24] = system: UO-31 renal
[25] = system: MOLT-4 leukemia
[26] = system: PC-3 prostate
[27] = system: SNB-75 CNS
[28] = system: SK-MEL-28 melanoma
[29] = system: MCF7 breast
[30] = system: SF-539 CNS
[31] = system: U251 glioblastoma
[32] = system: HL-60(TB) leukemia
[33] = system: SF-268 CNS
[34] = system: LOX IMVI melanoma
[35] = system: OVCAR-5 ovarian
[36] = system: UACC-257 melanoma
[37] = system: SK-OV-3 ovarian
[38] = system: RXF 393 renal
[39] = system: A549 NSCLC
[40] = system: T-47D breast
[41] = system: MDA-MB-468 breast
[42] = system: SF-295 CNS
[43] = system: A498 renal
[44] = system: RPMI-8226 leukemia
[45] = system: NCI-H522 lung
[46] = system: NCI-H23 lung
[47] = system: CCRF-CEM leukemia
[48] = system: OVCAR-4 ovarian
[49] = system: KM12 colon
[50] = system: OVCAR-3 ovarian
[51] = system: ACHN renal
[52] = system: UACC-62 melanoma
[53] = system: 786-0 renal
[54] = system: HCT-116 colon
[55] = system: NCI-H322M lung

## N[C@@H]1CCCC[C@H]1N.O=C([O-])C(=O)[O-].[Pt+4]
[1]
  GI50: 4.11 µM
  TGI: 40.8 µM
[2]
  GI50: 25.8 µM
  TGI: > 100 µM
[3]
  GI50: > 100 µM
  TGI: > 100 µM
[4]
  GI50: 12.5 µM
  TGI: 48.4 µM
[5]
  GI50: 8.78 µM
  TGI: 52.6 µM
[6]
  GI50: 1.03 µM
  TGI: 31.3 µM
[7]
  GI50: 11.2 µM
  TGI: > 100 µM
[8]
  GI50: 20.2 µM
  TGI: > 100 µM
[9]
  GI50: 16.7 µM
  TGI: > 100 µM
[10]
  GI50: 58.3 µM
  TGI: > 100 µM
[11]
  GI50: 12.1 µM
  TGI: 27.8 µM
[12]
  GI50: 7.92 µM
  TGI: > 100 µM
[13]
  GI50: 10.7 µM
  TGI: 22.8 µM
[14]
  GI50: 3.78 µM
  TGI: > 100 µM
[15]
  GI50: 0.951 µM
  TGI: 55.8 µM
[16]
  GI50: 75.9 µM
  TGI: > 100 µM
[17]
  GI50: 7.47 µM
  TGI: 36 µM
[18]
  GI50: 7.27 µM
  TGI: > 100 µM
[19]
  GI50: 9.49 µM
  TGI: > 100 µM
[20]
  GI50: 6.15 µM
  TGI: > 100 µM
[21]
  GI50: > 100 µM
  TGI: > 100 µM
[22]
  GI50: 32.3 µM
  TGI: > 100 µM
[23]
  GI50: 4.56 µM
  TGI: 21.5 µM
[24]
  GI50: 10.4 µM
  TGI: 25.5 µM
[25]
  GI50: 0.276 µM
  TGI: 0.7 µM
[26]
  GI50: 8.53 µM
  TGI: > 100 µM
[27]
  GI50: 30 µM
  TGI: > 100 µM
[28]
  GI50: 14.6 µM
  TGI: 63.9 µM
[29]
  GI50: 5.43 µM
  TGI: > 100 µM
[30]
  GI50: 6.07 µM
  TGI: 35.5 µM
[31]
  GI50: 8.83 µM
  TGI: > 100 µM
[32]
  GI50: 0.523 µM
  TGI: 1.82 µM
[33]
  GI50: 11 µM
  TGI: > 100 µM
[34]
  GI50: 12.2 µM
  TGI: > 100 µM
[35]
  GI50: 8.06 µM
  TGI: 47.8 µM
[36]
  GI50: 24.1 µM
  TGI: > 100 µM
[37]
  GI50: 31 µM
  TGI: > 100 µM
[38]
  GI50: 10.6 µM
  TGI: 23.7 µM
[39]
  GI50: 2.61 µM
  TGI: > 100 µM
[40]
  GI50: 12.7 µM
  TGI: > 100 µM
[41]
  GI50: 2.33 µM
  TGI: 7.94 µM
[42]
  GI50: 27.4 µM
  TGI: > 100 µM
[43]
  GI50: 0.939 µM
  TGI: 54.1 µM
[44]
  GI50: 0.403 µM
  TGI: 1.85 µM
[45]
  GI50: 10.1 µM
  TGI: 21.7 µM
[46]
  GI50: 8.68 µM
  TGI: 28.8 µM
[47]
  GI50: 2.13 µM
  TGI: 4.74 µM
[48]
  GI50: 19.8 µM
  TGI: > 100 µM
[49]
  GI50: 20.8 µM
  TGI: > 100 µM
[50]
  GI50: 8.13 µM
  TGI: 30.6 µM
[51]
  GI50: 2.88 µM
  TGI: 20.4 µM
[52]
  GI50: 3.15 µM
  TGI: 25.1 µM
[53]
  GI50: 3.2 µM
  TGI: 98.7 µM
[54]
  GI50: 3.36 µM
  TGI: > 100 µM
[55]
  GI50: > 100 µM
  TGI: > 100 µM
